Target: T1, Cloned Human Dopamine D3 Receptors (Homo sapiens, UniProt P35462)
T1 construct: expressed in transfected cells; membrane homogenate
Test: [N-Methyl-3H]Spiroperidol binding to cloned human dopamine D3 receptors
Conditions: D3 Ki (nM)
In short: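 [N-methyl-3H]spiroperidol binding is run in Tris buffer, pH 7.7. Receptor source is membranes of a stably transfected, high-expressing CHO clone carrying the human D3 gene, kept at -80°C in 10% DMSO.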

T1 sequence (P35462 whole entry): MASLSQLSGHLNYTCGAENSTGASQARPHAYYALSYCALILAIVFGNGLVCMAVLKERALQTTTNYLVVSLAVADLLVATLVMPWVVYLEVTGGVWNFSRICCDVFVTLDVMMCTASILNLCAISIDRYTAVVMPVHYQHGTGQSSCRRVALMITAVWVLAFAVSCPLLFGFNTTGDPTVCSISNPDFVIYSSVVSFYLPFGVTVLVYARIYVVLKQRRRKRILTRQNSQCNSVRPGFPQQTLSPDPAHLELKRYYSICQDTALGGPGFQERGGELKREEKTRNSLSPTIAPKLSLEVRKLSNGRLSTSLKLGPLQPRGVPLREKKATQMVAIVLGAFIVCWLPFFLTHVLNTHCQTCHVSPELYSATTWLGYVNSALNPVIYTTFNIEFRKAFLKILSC

Row | SMILES | Ki [nM]
1 | CCC1CCC(NC(=O)C2CC2CN2CCC(c3nn(-c4ccc(C(F)(F)F)cc4)c4ccccc34)CC2)CC1 (stereo not shown) [compound 830133] | 176

Same assay, conditions: Table 2; unit inferred; read-out: d3Ki

Row | SMILES | Ki [nM]
2 | O=C(NCc1cccc2ccccc12)[C@@H]1C[C@H]1CN1CCN(c2csc3cc(C(F)(F)F)ccc23)CC1 [compound 826075] | 55.6
3 | COc1ccc(N(C)C(=O)CCCN2CCN(c3csc4cc(F)ccc34)CC2)cc1 [compound 822144] | 144
4 | O=C(CCCN1CCN(c2csc3cc(F)ccc23)CC1CCCc1ccccc1)N(CCO)C1CCCCC1 (stereo not shown) [compound 827111] | 143
5 | CN(C(=O)CCCCN1CCN(c2csc3cc(F)ccc23)CC1)c1ccc(C(C)(C)C)cc1 [compound 822140] | 12.8
6 | O=C(CCCN1CCCN(c2csc3cc(F)ccc23)CC1)N(CCO)C1CCCCC1 [compound 826830] | 25.1
7 | O=C(NCc1cccs1)[C@@H]1C[C@H]1CN1CCN(c2csc3cc(C(F)(F)F)ccc23)CC1 [compound 826070] | 12.6
8 | O=C(CCCN1CCCN(c2csc3cc(F)ccc23)CC1)NC1CCCC1 [compound 826840] | 11

The next lines start with the values.

Row | Ki [nM] | SMILES
9 | 0.547 | CC[C@H]1CC[C@H](NC(=O)[C@@H]2C[C@H]2CN2CCN(c3cccc4ccccc34)CC2)CC1 [compound 817101]
10 | 22.1 | CC[C@H]1CC[C@H](NC(=O)[C@@H]2C[C@H]2CN2CCN(c3csc4cc(C(F)(F)F)ccc34)CC2)CC1 [compound 818499]
11 | 18 | CCOC(=O)[C@H]1CC[C@H](NC(=O)[C@@H]2C[C@H]2CN2CCN(c3csc4cc(C(F)(F)F)ccc34)CC2)CC1 [compound 815917]
12 | 20.3 | CN(C(=O)[C@@H]1C[C@H]1CN1CCN(c2csc3cc(C(F)(F)F)ccc23)CC1)C1CCCCC1 [compound 826885]
13 | 15.8 | C[C@H]1CC[C@H](NC(=O)[C@@H]2C[C@H]2CN2CCN(c3cccc4cccnc34)CC2)CC1 [compound 827253]
14 | 10.5 | CC[C@H]1CC[C@H](NC(=O)[C@@H]2C[C@H]2CN2CCCN(c3ccc(C)cn3)CC2)CC1 [compound 827732]
15 | 126 | C[C@H]1CC[C@H](NC(=O)[C@@H]2C[C@H]2CN2CCN(Cc3ccc4c(c3)OCO4)CC2)CC1 [compound 827201]
16 | 19.7 | CCC1CCC(NC(=O)C2CC2CN2CCCN(c3ccccn3)CC2)CC1 (stereo not shown) [compound 827800]
17 | 19.3 | O=C(NCC1CC1)[C@@H]1C[C@H]1CN1CCN(c2csc3cc(C(F)(F)F)ccc23)CC1 [compound 826067]
18 | 161 | C[C@H]1CC[C@H](NC(=O)[C@@H]2C[C@H]2CN2CCN(CCc3ccccc3)CC2)CC1 [compound 827198]
19 | 7.2 | CCC1CCC(NC(=O)C2CC2CN2CCN(c3ccc(C(F)(F)F)cc3)CC2)CC1 (stereo not shown) [compound 817043]

Same assay, conditions: Table 2 part the 10th table; read-out: d3Ki

Row | SMILES | Ki [nM]
20 | CC1(C)CCCN(C(=O)CCCN2CCCN(c3csc4cc(F)ccc34)CC2)C1 [compound 826837] | 8.8
21 | O=C([C@@H]1C[C@H]1CN1CCN(c2csc3cc(C(F)(F)F)ccc23)CC1)N1CCC[C@H]1CO [compound 826920] | 67.6
22 | O=C([C@@H]1C[C@H]1CN1CCN(c2csc3cc(C(F)(F)F)ccc23)CC1)N1CCC(O)(c2ccccc2)CC1 [compound 826911] | 93
23 | O=C([C@@H]1C[C@H]1CN1CCCN(c2csc3cc(C(F)(F)F)ccc23)CC1)N1CCCC1 [compound 826683] | 3.7
24 | N#CC1(c2ccccc2)CCN(C(=O)[C@@H]2C[C@H]2CN2CCCN(c3csc4cc(C(F)(F)F)ccc34)CC2)CC1 [compound 826689] | 674
25 | O=C([C@@H]1C[C@H]1CN1CCN(c2csc3cc(C(F)(F)F)ccc23)CC1)N1CCC(O)CC1 [compound 826660] | 53
26 | O=C(CCCN1CCN(c2csc3cc(C(F)(F)F)ccc23)CC1Cc1ccccc1)N1CCC(O)CC1 (stereo not shown) [compound 827063] | 373
27 | O=C([C@@H]1C[C@H]1CN1CCCN(c2csc3cc(F)ccc23)CC1)N1CCCC1 [compound 826879] | 1.59
28 | CC1(C)CCCN(C(=O)CCCN2CCN(c3csc4cc(F)ccc34)CC2Cc2ccccc2)C1 (stereo not shown) [compound 827098] | 82.9

More lines, now with the values ahead:

Row | Ki [nM] | SMILES
29 | 7.95 | CC1CC(C)CN(C(=O)[C@@H]2C[C@H]2CN2CCCN(c3csc4cc(F)ccc34)CC2)C1 (stereo partly shown) [compound 826878]
30 | 183 | CC(=O)N[C@@H]1CCN(C(=O)[C@@H]2C[C@H]2CN2CCN(c3csc4cc(C(F)(F)F)ccc34)CC2)C1 [compound 826922]
31 | 11.2 | CC1CCC(C)N1C(=O)[C@@H]1C[C@H]1CN1CCN(c2csc3cc(C(F)(F)F)ccc23)CC1 (stereo partly shown) [compound 826928]
32 | 2.93 | CC1CCCN1C(=O)[C@@H]1C[C@H]1CN1CCCN(c2csc3cc(F)ccc23)CC1 (stereo partly shown) [compound 826882]

Same assay, conditions: d3Ki, Table 2; unit inferred

Row | SMILES | Ki [nM]
33 | C[C@H]1CC[C@H](NC(=O)[C@@H]2C[C@H]2CN2CCN(c3noc4ccsc34)CC2)CC1 [817892A] | 3.02

Same assay, conditions: d3Ki, Table 2 part the 10th table

Row | SMILES | Ki [nM]
34 | O=C([C@@H]1C[C@H]1CN1CCN(c2csc3cc(C(F)(F)F)ccc23)CC1)N1CCC(N2CCCC2)CC1 [compound 826664] | 9.4

Same assay, conditions: read-out: D3 Ki

Row | SMILES | Ki [nM]
35 | Cn1nc(C2CCN(C[C@@H]3C[C@H]3C(=O)N3CCC(Cn4ccnc4)CC3)CC2)c2sccc21 [A002436292] | 129
36 | COc1ccc2[nH]cc(CCNC(=O)[C@@H]3C[C@H]3CN3CCC(c4noc5ccsc45)CC3)c2c1 [compound 831275] | 5.15
37 | O=C(NCCCN1CCCCC1)[C@@H]1C[C@H]1CN1CCN(c2nn(-c3ccc(C(F)(F)F)cc3)c3ccsc23)CC1 [A002201942] | 30.2
38 | O=C(NCCCn1ccnc1)[C@@H]1C[C@H]1CN1CCN(c2nn(-c3ccc(F)cc3)c3ccccc23)CC1 [compound 833823] | 0.637
39 | Cn1nc(N2CCN(C[C@@H]3C[C@H]3C(=O)NCCCN3CCOCC3)CC2)c2sccc21 [A002202402] | 47.3

Continued, values first:

Row | Ki [nM] | SMILES
40 | 1.71 | CC[C@H]1CC[C@H](NC(=O)[C@@H]2C[C@H]2CN2CCN(c3cccc(C(F)(F)F)c3)CC2)CC1 [compound 827229]
41 | 157 | O=C(C1CC1CN1CCC(c2noc3ccsc23)CC1)N1CCN(CCc2ccccn2)CC1 (stereo not shown) [compound 832001]

Same assay, conditions: read-out: d3Ki

Row | SMILES | Ki [nM]
42 | O=C(NCCN1CCOCC1)[C@@H]1C[C@H]1CN1CCCN(c2csc3cc(C(F)(F)F)ccc23)CC1 [compound 826682] | 103
43 | O=C(NCc1ccccc1)[C@@H]1CCC[C@H]1N1CCN(c2csc3cc(F)ccc23)CC1 [compound 825830] | 64.6
44 | O=C(NCc1ccc2c(c1)OCO2)[C@@H]1CCCC[C@H]1CN1CCN(c2csc3cc(C(F)(F)F)ccc23)CC1 [compound 826098] | 451

Next, values leading:

Row | Ki [nM] | SMILES
45 | 1.9 | C[C@H]1CC[C@H](NC(=O)[C@@H]2C[C@H]2CN2CCN(c3csc4cc(F)ccc34)CC2)CC1 [compound 826665]
46 | 11.1 | CC[C@H]1CC[C@H](NC(=O)[C@@H]2C[C@H]2CN2CCN(c3ccc(C)cc3)CC2)CC1 [compound 827213]
47 | 40.6 | Cc1ccc(N2CCN(C[C@@H]3C[C@H]3C(=O)N[C@H]3CC[C@H](C)CC3)CC2)c(C)c1 [compound 827193]
48 | 1.71 | CC[C@H]1CC[C@H](NC(=O)[C@@H]2C[C@H]2CN2CCN(c3cccc(C(F)(F)F)c3)CC2)CC1 [compound 827229]
49 | 24.4 | COc1ccc(N2CCN(C[C@@H]3C[C@H]3C(=O)N[C@H]3CC[C@H](C)CC3)CC2)cc1 [compound 827194]
50 | 4.34 | C[C@H]1CC[C@H](NC(=O)[C@@H]2C[C@H]2CN2CCN(c3ccc(Cl)c(C(F)(F)F)c3)CC2)CC1 [compound 827199]
51 | 3.15 | CC[C@H]1CC[C@H](NC(=O)[C@@H]2C[C@H]2CN2CCN(c3cccc(OC)c3)CC2)CC1 [compound 827234]

Same assay, conditions: the 17th table; read-out: D3 Ki

Row | Ki [nM] | SMILES
52 | 154 | C[C@H]1CC[C@H](N2CC(CN3CCN(c4noc5ccsc45)CC3)CC2=O)CC1 (stereo partly shown) [832831 DA]

From patent EP1935887A1, “Heterocyclic substituted carbonyl derivatives and their use as dopamine D3 receptor ligands” (Aventis Pharmaceuticals Inc., priority 2001, dated 2002)
